Data set [1] concerns subject with diabetic peripheral neuropathy (DN). In words: Topical and oral rGSH in diabetic peripheral neuropathy (case study). The note with it: for outcome of diabetic neuropathy: person, 13 weeks of therapy.
The test system of data set [2] is subject diagnosed with tardive dyskinesia (TD). The method, then:
Reduced glutathione was administered to the subject 5 times per day in a solution in the amount of about 18.25 mg per spray or about 91.25 mg per administration. The subject cleaned the area of application with a disinfectant wipe before topical application of the reduced glutathione. The topical rGSH was administered in 5 sprays of rGSH for a total dosage of about 91.25 mg. The administered rGSH dried for about 30 seconds before the subject was re-clothed. The facial movements and body movements of the subject were filmed once per week to analyze progression or loss of TD symptoms.
Topical rGSH was prescribed for 5 applications of 5 sprays each day to: (a) their right arm, (b) right jaw and masseter area, and (c) their spine. The total amount of administered rGSH was a total of 25 squirts per day (which is approximately 456 mg of rGSH via a Glutathione supplement) as applied by the nursing staff.

The test system of data set [3] is fibromyalgia syndrome (FMS) subjects. The note with it: 43 subjects; rGSH with low copper diet and support product. From the text: 43 fibromyalgia subjects underwent dietary changes supplements including: (a) a low copper diet, (b) a support product containing molybdenum, boron, zinc chelate, pyridoxine, N-Acetyl L-Cysteine, L-serine and L-glutamine, and (c) rGSH.

The test system of data set [4] is subject with partial and full thickness burn lesions. The method, then:
The subject was treated with topical applications of rGSH. The subject was administered the rGSH 5-8 times a day over a 3-month period.
A subject had accidentally burned themself on an outdoor grill. The subject was treated with rGSH at 5-8 times a day with topical application. The subject was also treated with Cephalexin 500 mg in case of infection.

For data set [5], the system named is subjects with chronic shingles and post-herpetic neuralgia (PHN). In words: Topical reduced glutathione in a liposomal carrier in chronic shingles / post-herpetic neuralgia. It counts as in vivo, human. The source says:
Most the subjects at the time of the first visit reported significant depression and suicidal thoughts. Most subjects also reported giving up hope. […] The self-rated pain averaged a 7, but many subjects reported that when a break-out was occurring, the pain could spike to a 10. Videos and pictures were taken where and when appropriate with proper releases documented.

The test system of data set [6] is subjects with chemotherapy-induced peripheral neuropathy (CIPN). The method, then:
Subjects were treated with topical and oral rGSH in a natural liposomal carrier after initial consultation. Subjects began treatment prior to their second visit. Follow-up consultations with subjects occurred weekly to monthly according to symptoms and needs.
Procedures for measuring CIPN were based on interviews performed by a medical professional with subjects. The physician measured nerve sensitivity in some of the subjects using in-office medical instruments.

Where [7] appears, read: after 35 days of rGSH treatment.

Results on three compounds are retold here after patent US20240009265A1, “METHODS OF TREATMENT COMPRISING STABLE REDUCED GLUTATHIONE” (Blue Sky Innovation, LLC, priority 2020, published 2024).

Read-outs that look alike come from different tables or passages of the source. A value given as a limit tells only on which side of the number the result lay.

Take `C[C@]12CC[C@H]3[C@@H](CCC4=CC(=O)CC[C@@]43C)[C@@H]1CC[C@@H]2O` [injectable testosterone, testosterone, reference compound]: in data set [1] (modest dose, before rGSH treatment), the “effect on the subject's issues (insulin sensitivity, muscle strength, neuropathy)” value is “did not have a substantial effect”.
On to `N[C@@H](CCC(=O)N[C@@H](CS)C(=O)NCC(=O)O)C(=O)O` [rGSH, reduced glutathione], for which, in data set [2] (after 10 weeks of treatment), the “outcome of TD” value is given as “resolved completely”. Also, in data set [2] (after 21 days of topical rGSH, about 456 mg/day, before treatment about every 1-2 seconds), the “interval between involuntary jaw movements (masseter muscles)” value lay in the range of 4 to 5 s. In data set [2] (after 21 days of topical rGSH, before treatment about every 1-2 seconds), the “interval between involuntary arm movements” value fell in the range of 4 to 5 s. The ambulation result in data set [2] (after 42 days) is “no longer used assistance for walking up and down stairs”. Also, in data set [2] (after 42 days of topical rGSH), the “interval between facial and arm movements” value was around 10 s. The “pain in shoulder, back and jaw” value in data set [2] (after 42 days, compared with the 21 day period) was “substantially decreased”. Also, the “involuntary facial or arm movement” value in data set [2] (after 70 days) was “no longer had involuntary facial or arm movement”. Further, the pain entry in data set [2] (after 70 days) is given as “substantially free of pain”. The TD symptoms entry in data set [2] (after 70 days of rGSH administration) is listed as “substantially free of symptoms”. Moreover, the FMS symptoms entry in data set [3] was “substantial resolution”. For the same compound, the “pain in fibromyalgia subjects” value in data set [3] is “substantially reduced pain”. Also, the burn pain entry in data set [4] (10 weeks after the burn) is given as “no longer had any pain”; in data set [4] (after 21 days of rGSH treatment), “tolerable”. Further, in data set [4] (setting [7]), the “infection of the burn” value is reported as “No infection had occurred”. For the same compound, the “state of the wound” value in data set [4] (setting [7]) was “dead skin and eschar were gone and new skin has started to epithelialize”; in data set [4] (after 49 days of treatment) it was “nearly healed”. Moreover, the “burn pain within an hour of application” value in data set [4] (day of the burn) is on record as “nearly dissipated”. Besides, the “time until pain was subsiding after topical application” value in data set [4] (day of the burn) was at most 30 min. For the same compound, in data set [4] (topical rGSH 5-8 times per day over a 3-month period), the “course of burn healing” value is “Healing commenced immediately with minimal pain, minimal scarring, no infection, and minimal drainage”. In data set [5] (one subject with shingles and PHN for about nine years), the “time to nearly complete resolution of symptoms” value is at most 34 min. Also, the “share of subjects with nearly complete resolution only over a more extended period” value in data set [5] (over a hundred patients and volunteers with shingles) is “Less than 5%”. For the same compound, the “extended period to nearly complete resolution” value in data set [5] (the subjects with slower response) fell in the range of 2 to 5 days. For the same compound, the “time to major resolution of symptoms” value in data set [6] (Patient 5-C) is at most 3 days. For the same compound, the “pain in the feet” value in data set [6] (Patient 5-C, Day 63) is “no longer felt pain in the feet”. Moreover, the CIPN symptoms entry in data set [6] (Patient 5-D, Day 31) is recorded as “substantial decrease in symptoms”; in data set [6] (Subject 5-B, Day 7), “improved symptoms”. Moreover, the “feeling better since starting treatment” value in data set [6] (Patient 5-D, Day 38) is reported as “about 70%”. In data set [6] (Patient 5-D, Day 52), this compound came in with a decrease in symptoms of 80%. Further, the “CIPN symptoms resolved, as reported by the subject” value in data set [6] (Subject 5-A, Day 12, only took rGSH orally) is “about 40%”. In data set [6] (Subject 5-B, Day 42), the “improvement of symptoms since using rGSH” value is listed as 50%. Further, the “resolution of CIPN symptoms” value stood at 70% in data set [6] (Subject 5-B, Day 84); 70% in data set [6] (Subject 5-B, Day 112); 70% in data set [6] (Subject 5-B, Day 245, rGSH stopped for a few months). For the same compound, in data set [1] (after 13 weeks of therapy), the “renal or liver functions” value was “No effect”. The compound also displayed an HBA1C in data set [1] (after 13 weeks of therapy, 10.0% before) of 10.1%. In addition, the “neuropathy in the hands” value in data set [1] (oral and topical rGSH, weekly examination) is “complete resolution in their hands in the first few weeks”. For the same compound, the entries for the “outcome of diabetic neuropathy” value in data set [1] and in data set [1] (listed as stable rGSH) were “resolved substantially” and “resolved”, respectively. In data set [1] (seven other subjects treated with stable rGSH), the “diabetic neuropathy in seven other subjects” value is “complete resolution”.
For `Nc1nc2c(ncn2COCCO)c(=O)[nH]1` [acyclovir, reference compound], the “effect of earlier chronic medication on shingles/PHN pain” value in data set [5] (chronic doses before rGSH treatment) is listed as “without substantial ameliorative effect”.
